Results reported in ChEMBL document CHEMBL1201862, “PubChem BioAssay data set” (2004).
Active and inactive are the calls of the source.

How the values were obtained:
[1] = target: T1, Delta-type opioid receptor (Homo sapiens, UniProt P41143); experiment: HTS Image-Based Screen for Antagonists of the DOR Receptor. [Related pubchem assays (depositor defined):AID1777, AID1785, AID1786, AID2133]; format: functional
[2] = target: Mu-type opioid receptor (Homo sapiens, UniProt P35372); experiment: HTS Image-Based Screen for Agonists of the MOR Receptor. [Related pubchem assays (depositor defined):AID1777, AID1785, AID1786, AID2133]; format: functional;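 also: imaging of beta-arrestin GFP recruitment into spots after receptor activation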
[3] = target: T1, Delta-type opioid receptor; experiment: HTS Image-Based Screen for Agonists of the DOR Receptor. [Related pubchem assays (depositor defined):AID1777, AID1786, AID2133]; format: functional
[4] = target: T2, Kappa-type opioid receptor (Homo sapiens, UniProt P41145); format: functional
[5] = target: Beta-galactosidase (Escherichia coli, UniProt Q8VNN2); format: functional
[6] = target: T2, Kappa-type opioid receptor; format: functional; remark: listed apart in the source
[7] = target: T3, G-protein coupled receptor 35 (Homo sapiens, UniProt Q9HC97); experiment: SAR analysis of Agonists of the GPR35 Receptor using an Image-Based Assay - Set 4. [Related pubchem assays (depositor defined):AID2013, AID2026]; format: functional
[8] = target: T4, Cannabinoid receptor 1 (Homo sapiens, UniProt P21554); experiment: SAR analysis of agonists of the Cannabinoid Receptor 1 using an Image-Based Assay - Set 4. [Related pubchem assays (depositor defined):AID2013, AID2026]; format: functional
[9] = target: T3, G-protein coupled receptor 35; experiment: SAR analysis of Antagonists of the GPR35 Receptor using an Image-Based Assay - Set 6. [Related pubchem assays (depositor defined):AID2013, AID2026]; format: functional
[10] = target: T4, Cannabinoid receptor 1; experiment: SAR analysis of antagonists of the Cannabinoid Receptor 1 using an Image-Based Assay - Set 4. [Related pubchem assays (depositor defined):AID2013, AID2026]; format: functional
[11] = target: G-protein coupled receptor 55 (Homo sapiens, UniProt Q9Y2T6); experiment: SAR Analysis of Selective Antagonists of GPR55 using an Image-Based Assay - Set 4. [Related pubchem assays (depositor defined):AID2013, AID2026]; format: functional;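 also: antagonism of response to 5 µM lysophosphatidylinositol agonist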
[12] = target: T5, Cannabinoid receptor 2 (Homo sapiens, UniProt P34972); experiment: SAR analysis of antagonists of the Cannabinoid Receptor 2 using an Image-Based Assay - Set 3. [Related pubchem assays (depositor defined):AID2013, AID2026]; format: functional
[13] = target: T5, Cannabinoid receptor 2; experiment: SAR analysis of agonists of the Cannabinoid Receptor 2 using an Image-Based Assay - Set 3. [Related pubchem assays (depositor defined):AID2013, AID2026]; format: functional
[14] = target: T6, Probable nicotinate-nucleotide adenylyltransferase (Staphylococcus aureus (strain N315), UniProt P65502); format: functional, Staphylococcus aureus subsp. aureus N315;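 as to IC50 Mean: confirmatory dose-response retesting of NadD inhibitor hits first found in an ultra-high-throughput screen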
[15] = target: T6, Probable nicotinate-nucleotide adenylyltransferase; format: functional, Staphylococcus aureus subsp. aureus N315; conditions: read-out: IC50_Mean

T1 sequence (P41143 whole entry): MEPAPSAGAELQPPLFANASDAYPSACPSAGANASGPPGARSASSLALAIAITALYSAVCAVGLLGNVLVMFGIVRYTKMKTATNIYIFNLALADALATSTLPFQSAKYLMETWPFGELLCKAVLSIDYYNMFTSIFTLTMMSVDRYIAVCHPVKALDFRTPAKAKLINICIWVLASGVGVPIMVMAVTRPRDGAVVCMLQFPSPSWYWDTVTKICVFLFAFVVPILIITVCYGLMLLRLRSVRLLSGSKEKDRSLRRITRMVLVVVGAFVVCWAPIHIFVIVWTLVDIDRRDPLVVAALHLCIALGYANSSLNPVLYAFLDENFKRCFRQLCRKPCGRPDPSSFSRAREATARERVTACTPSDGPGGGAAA
T5 sequence (P34972 whole entry): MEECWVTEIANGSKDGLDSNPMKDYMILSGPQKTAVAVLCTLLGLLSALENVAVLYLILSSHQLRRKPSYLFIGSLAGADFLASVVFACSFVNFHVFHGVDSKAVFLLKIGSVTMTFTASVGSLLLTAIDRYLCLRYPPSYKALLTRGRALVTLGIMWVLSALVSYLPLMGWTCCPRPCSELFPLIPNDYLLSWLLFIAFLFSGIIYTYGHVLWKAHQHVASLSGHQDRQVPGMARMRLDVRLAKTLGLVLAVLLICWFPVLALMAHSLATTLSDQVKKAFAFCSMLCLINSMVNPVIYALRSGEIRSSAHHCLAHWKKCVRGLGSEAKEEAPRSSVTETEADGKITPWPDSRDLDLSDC
T2 sequence (P41145 whole entry): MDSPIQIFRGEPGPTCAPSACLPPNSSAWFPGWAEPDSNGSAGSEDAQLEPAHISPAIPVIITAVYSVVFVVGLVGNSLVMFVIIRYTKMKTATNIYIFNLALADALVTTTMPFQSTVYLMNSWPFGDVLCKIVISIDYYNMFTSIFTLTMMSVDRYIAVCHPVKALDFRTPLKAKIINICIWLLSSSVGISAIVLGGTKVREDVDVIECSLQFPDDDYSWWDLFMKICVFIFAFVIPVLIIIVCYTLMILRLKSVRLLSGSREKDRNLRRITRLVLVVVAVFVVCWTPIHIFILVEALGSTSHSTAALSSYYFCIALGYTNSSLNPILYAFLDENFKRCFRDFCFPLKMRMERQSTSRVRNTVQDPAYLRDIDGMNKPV
T3 sequence (Q9HC97 whole entry): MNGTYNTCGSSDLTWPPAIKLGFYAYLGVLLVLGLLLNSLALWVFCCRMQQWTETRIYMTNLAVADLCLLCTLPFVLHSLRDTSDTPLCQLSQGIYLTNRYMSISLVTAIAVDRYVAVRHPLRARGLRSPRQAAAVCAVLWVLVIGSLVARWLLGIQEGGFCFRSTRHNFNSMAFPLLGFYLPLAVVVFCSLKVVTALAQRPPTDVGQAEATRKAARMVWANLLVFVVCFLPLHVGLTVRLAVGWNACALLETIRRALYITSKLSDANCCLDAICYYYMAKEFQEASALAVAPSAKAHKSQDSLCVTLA
T4 sequence (P21554 whole entry): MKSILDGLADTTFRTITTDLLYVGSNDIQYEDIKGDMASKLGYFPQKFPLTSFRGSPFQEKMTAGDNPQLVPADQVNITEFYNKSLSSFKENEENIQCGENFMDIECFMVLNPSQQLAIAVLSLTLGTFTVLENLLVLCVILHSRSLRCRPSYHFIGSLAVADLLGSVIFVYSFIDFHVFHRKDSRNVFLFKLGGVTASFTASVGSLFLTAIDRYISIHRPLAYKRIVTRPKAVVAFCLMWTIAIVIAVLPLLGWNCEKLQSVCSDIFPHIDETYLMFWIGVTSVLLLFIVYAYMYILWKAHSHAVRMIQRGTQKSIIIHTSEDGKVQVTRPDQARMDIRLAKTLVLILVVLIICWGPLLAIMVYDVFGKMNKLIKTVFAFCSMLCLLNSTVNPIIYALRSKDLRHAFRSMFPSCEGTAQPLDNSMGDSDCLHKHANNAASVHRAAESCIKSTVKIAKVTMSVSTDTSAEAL
Chain of Beta-galactosidase (Q8VNN2 whole entry): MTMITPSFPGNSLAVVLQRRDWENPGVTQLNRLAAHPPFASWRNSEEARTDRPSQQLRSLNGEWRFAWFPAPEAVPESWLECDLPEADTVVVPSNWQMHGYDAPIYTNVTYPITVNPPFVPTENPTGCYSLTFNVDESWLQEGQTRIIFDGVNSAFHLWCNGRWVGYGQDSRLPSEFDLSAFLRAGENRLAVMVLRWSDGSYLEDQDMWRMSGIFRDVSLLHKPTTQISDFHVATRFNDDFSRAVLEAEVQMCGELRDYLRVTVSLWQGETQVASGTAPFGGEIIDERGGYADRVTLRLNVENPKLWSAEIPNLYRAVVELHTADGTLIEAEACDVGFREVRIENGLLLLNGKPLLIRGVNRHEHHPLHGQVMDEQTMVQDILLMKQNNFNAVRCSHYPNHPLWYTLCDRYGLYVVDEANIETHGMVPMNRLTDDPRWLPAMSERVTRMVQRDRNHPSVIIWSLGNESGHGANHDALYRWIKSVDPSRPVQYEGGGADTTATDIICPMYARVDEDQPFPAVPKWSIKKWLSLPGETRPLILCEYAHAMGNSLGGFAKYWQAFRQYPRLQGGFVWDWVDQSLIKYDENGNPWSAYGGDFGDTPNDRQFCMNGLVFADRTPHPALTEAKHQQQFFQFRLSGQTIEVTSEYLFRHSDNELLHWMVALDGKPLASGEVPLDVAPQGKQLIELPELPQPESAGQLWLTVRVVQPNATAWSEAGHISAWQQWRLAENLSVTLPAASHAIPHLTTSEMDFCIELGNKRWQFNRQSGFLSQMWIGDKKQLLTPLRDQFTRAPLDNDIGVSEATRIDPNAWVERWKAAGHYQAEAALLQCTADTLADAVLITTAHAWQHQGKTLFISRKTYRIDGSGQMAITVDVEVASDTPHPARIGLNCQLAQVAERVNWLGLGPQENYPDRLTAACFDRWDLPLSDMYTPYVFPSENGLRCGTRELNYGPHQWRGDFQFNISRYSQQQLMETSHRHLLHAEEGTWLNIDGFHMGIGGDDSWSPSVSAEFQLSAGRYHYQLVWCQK
Chain of G-protein coupled receptor 55 (Q9Y2T6 whole entry): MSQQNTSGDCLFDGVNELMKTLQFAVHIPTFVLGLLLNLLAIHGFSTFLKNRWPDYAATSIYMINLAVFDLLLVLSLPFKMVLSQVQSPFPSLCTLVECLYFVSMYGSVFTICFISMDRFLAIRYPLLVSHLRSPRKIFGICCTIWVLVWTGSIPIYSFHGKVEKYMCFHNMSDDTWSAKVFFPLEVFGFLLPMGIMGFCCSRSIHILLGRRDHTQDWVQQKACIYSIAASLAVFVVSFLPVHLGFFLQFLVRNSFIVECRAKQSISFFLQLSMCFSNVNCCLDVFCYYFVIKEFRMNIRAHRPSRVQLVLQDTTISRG
Chain of Mu-type opioid receptor (P35372 whole entry): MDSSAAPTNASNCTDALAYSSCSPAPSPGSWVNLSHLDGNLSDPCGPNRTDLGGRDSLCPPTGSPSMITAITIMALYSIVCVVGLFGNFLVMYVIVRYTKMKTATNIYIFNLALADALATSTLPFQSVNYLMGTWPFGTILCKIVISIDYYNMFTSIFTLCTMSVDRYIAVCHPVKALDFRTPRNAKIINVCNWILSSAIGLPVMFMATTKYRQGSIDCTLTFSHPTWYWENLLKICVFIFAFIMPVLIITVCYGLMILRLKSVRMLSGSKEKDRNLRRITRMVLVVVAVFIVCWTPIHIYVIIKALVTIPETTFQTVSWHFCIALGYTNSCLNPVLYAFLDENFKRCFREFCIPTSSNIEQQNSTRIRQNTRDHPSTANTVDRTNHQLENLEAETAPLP
T6 sequence (P65502 whole entry): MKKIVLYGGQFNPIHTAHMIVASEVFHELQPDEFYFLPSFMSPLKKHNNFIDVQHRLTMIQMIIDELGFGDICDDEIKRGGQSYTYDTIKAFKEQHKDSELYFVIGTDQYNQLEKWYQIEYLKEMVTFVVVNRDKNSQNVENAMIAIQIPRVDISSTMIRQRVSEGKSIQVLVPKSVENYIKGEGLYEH

Structure (SMILES) | IC50 [1] | EC50 [2] | EC50 [3] | IC50 [4] | EC50 [5] | IC50 [6] | EC50 [7] | EC50 [8] | IC50 [9] | IC50 [10] | IC50 [11] | IC50 [12] | EC50 [13] | IC50 [14] | IC50 [15]
CCOc1ccc2nc(N3C(=O)CNC3=S)sc2c1 | > 32 µM (inactive) | > 32 µM (inactive) | > 32 µM (inactive) | 16.4 µM (active) | > 31.5 µM (inactive) | > 32 µM |  |  |  |  |  |  |  |  | 
Cc1ccc(CN2C3CCCC2CC(NC(=O)c2ccc(F)cc2)C3)cc1 (stereo not drawn) | > 32 µM (inactive) | > 32 µM (inactive) | > 32 µM (inactive) | 7.7 µM (active) | > 31.5 µM (inactive) | 3.7 µM |  |  |  |  |  |  |  |  | 
N=c1c(C(=O)NCCN2CCOCC2)cc2c(=O)n3ccccc3nc2n1C1CCCC1 |  |  |  |  |  |  | > 32 µM (inactive) | > 32 µM (inactive) | > 32 µM (inactive) | > 32 µM (inactive) | > 32 µM (inactive) | > 32 µM (inactive) | 8.59 µM (active) |  | 
O=C(Nc1ccc(S(=O)(=O)Nc2nccs2)cc1)c1cc(-c2ccccc2)nc2ccccc12 |  |  |  |  |  |  | > 32 µM (inactive) | > 32 µM (inactive) | > 32 µM (inactive) | 4.77 µM (active) | 5.75 µM (active) | > 32 µM (inactive) | > 32 µM (inactive) | 6.12 µM (active) | 20 µM (active)
